4 molecules from publication PMC9117146, “Immunogenicity and therapeutic targeting of a public neoantigen derived from mutated PIK3CA” (Nature Medicine, 2022) can be followed below.

One test deals with HLA-A*03:02 (Homo sapiens, UniProt P04439, E176V/L180Q). The experiment in a line: Differential scanning fluorimetry, peptide/HLA complex. It counts as binding. The following applies: DSF, SYPRO Orange, 15 μM protein, HBS-EP pH 7.4, representative melt curve (n=3 technical replicates).
In test [1] the test system is peptide-pulsed HLA-A*03:01+ target cells. As to the kind of experiment: Intracellular TNFα of TCR-transduced T cells with peptide-pulsed HLA-A*03:01+ targets. The test is classed as cell-based.
Test [2] addresses HLA-A*03:01 (heavy chain with β2-microglobulin) (human). As to the kind of experiment: fluorescence polarisation; fluorescence anisotropy; dissociation of fluorescein-labeled peptide from 100 nM purified peptide/HLA-A*03:01 complex with 100 μM unlabeled peptide; 37 °C; 20 mM NaH2PO4, 75 mM NaCl, pH 7.4; t1/2 = 0.693/koff of the slowest rate.

No end group written: not given here. *: point of attachment. 5FAM = O=C1OC2(c3ccc(O)cc3Oc3cc(O)ccc32)c2ccc(C(=O)*)cc21

Experimental for HLA-A*03:02: Melting temperatures of WT and Mut PIK3α peptide/HLA-A*03:01 complexes were measured via differential scanning fluorimetry on a StepOnePlus Real-Time PCR System (Applied Biosystems), as previously described[68]. In brief, a 96-well plate was loaded with mixtures of 2 μl of 100× SYPRO Orange Protein Gel Stain (Invitrogen) and 18 μl of target protein at 15 μM in HBS-EP buffer (10 mM HEPES, 150 mM NaCl, 3 mM NaEDTA, 0.005% surfactant P20, pH 7.4). The excitation and emission wavelengths for the measurement were 587 nm and 607 nm, respectively. Temperature was scanned from 20 °C to 95 °C at a rate of 1 °C min^−1. Melting temperatures were determined by fitting the 1st derivative of each melting curve to a bi-Gaussian function in OriginPro.

Take “AHHGGWTTK [pWT, wild-type PI3Kα counterpart peptide]”: the “Tm (melting temperature of peptide/HLA complex)” value at HLA-A*03:02 is listed as 38.7 oC.
As to “IVFMGWTTK [peptide derived from transmembrane protein 87B (TM87B), position 407-415]”, the “activation of T cells by peptide (in words)” value in test [1] was “failed to activate TCR4-transduced T cells”.
Regarding “fluorescein-labeled pMut derivative (P5 Gly substituted with a 5-carboxyfluorescein-modified lysine) (peptide)”, the t1/2 of the peptide/HLA complex in test [2] was 5.5 h.
The same measure, in the same setting: with AHHGK(5FAM)WTTK (also: 5-carboxyfluorescein-modified Lys at P5 (replacing Gly)) [fluorescein-labeled pWT derivative (P5 Gly substituted with a 5-carboxyfluorescein-modified lysine)] the figure was 0.078 h.
